Data: patent US20130096185A1, “INACTIVATION OF miR-34a BY ABERRANT CpG METHYLATION IN CANCER” (priority 2008, published 2013)

System: miR-34a promoter
Test: Bisulfite sequencing of miR-34a promoter CpG methylation after 5Aza-2′dC treatment
Type: cell-based, human
Details: LAPC-4 cells
Excerpt: (a) Pattern of CpG methylation in the miR-34a promoter region in prostate epithelial cells and derived cancer cell lines. The depicted region corresponds to 2.5 kbp upstream of the transcriptional start site (TSS, position indicated by arrow). Vertical bars represent CpG-dinucleotides. The position of the p53 binding site is indicated. The horizontal bars indicate amplified PCR products which were sub-cloned and analyzed by sequencing (gray: distal fragment, black: proximal fragment). The combined results obtained by sequencing of 8 independent subclones are shown for each cell line. Black areas represent the degree of cytosine methylation at the respective CpG position. The white shaded areas indicate methylation after treatment of LAPC-4 cells with 5Aza-2′dC. The open rectangles correspond to the regions covered by the MSP primers. IVM DNA was used as positive control for amplification of the M product. BPH1: benign prostate hyperplasia cells immortalized with SV40 large T antigen. IVM: in vitro methylated DNA.
Reversion of genomic methylation. Cells were grown in the presence of 1 μM 5-aza-2′deoxycytidine (5Aza-2′dC, Sigma) for 72 hours and 300 nM trichostatin A (TSA, Sigma) for the last 24 hours. […]
Bisulfite sequencing. […] For each cell line at least 8 individual clones were sequenced on both strands using M13 primers and BigDye terminator, and analyzed on a 3700 capillary sequencer (Applera).

Structure (SMILES): Nc1ncn([C@H]2C[C@H](O)[C@@H](CO)O2)c(=O)n1 [5Aza-2′dC, 5-aza-2′deoxycytidine]
- level of CpG methylation of miR-34a: reduction in the level of CpG methylation
